Reference: patent US12036301B2, “Deodorant and antiperspirant compositions” (The Procter & Gamble Company, priority 2017, dated 2024)
Counter-ions that a name gives are not always drawn.

Experiments:
[1] = system: two key underarm bacteria strains; experiment: Raw material microbial inhibition, verbal summary for both strains; assay type: cell-based, C. mucofaciens and S. epidermidis; conditions: verbal summary of Table 2, both strains
From the text: The data in Table 1 above was generated with the following test method.
It is understood that when not specifically noted in this procedure: • a) All materials, reagents and equipment required for this procedure are of appropriate design and condition of cleanliness and/or sterility as determined by their intended use. • b) The operator has been trained in aseptic technique and has been qualified to perform the procedure and accurately interpret the results. • c) All media required for this procedure was manufactured by a reputable commercial source eg. […] Procedure: (all Procedures Performed in Anaerobic Chamber Except where Noted) 1. […] 2. […] Microbial Strains • Staphylococcus epidermidis (clinical isolate) • Corynebacterium mucofaciens (clinical isolate) 4. Test Procedure Inoculum Preparation • Prior to testing streak organisms for isolation on BHI with 1% Tween 80 plates, wrap with parafilm and place in 37° C. incubator. When isolated colonies appear remove one representative colony from each plate and place each in 5 ml of BHI with 1% Tween 80 media. Incubate at 37° C. with shaking overnight. Inoculate 20 ml BHI with 1% Tween 80 (per 96 deep well plate to be tested) with 20 ul of the overnight culture (1-1000 dilution). Master Plate Preparation • Compounds/formulations to be tested are diluted across a 96 deep well plate as shown below (for a 1% stock solution). […] 800 ul each 1% stock solution+positive control are added to wells C1 through H1. […] 400 ul is then removed from #1 well added to the #2 well and mixed. This is then continued across the plate resulting in a 50% dilution between wells across the plate (this can be easily accomplished with an automatic 8 channel Matrix pipette set to withdraw, dispense and mix).
(§1) In row A of a 96 deep well plate pipette 180 ul of sterile BHI with 1% Tween 80 as a negative growth control. All other wells receive 180 ul of inoculum. From the master plate introduce 20 ul to the corresponding row in the test plate using an 8-channel pipette. Loaded plates are placed on a plate shaker in the 37° C. incubator and incubated overnight. The next day read the O.D. 600 on a plate reader. The MIC is the last well from the right that has no bacterial growth.

[2] = system: S. epidermidis; experiment: Tier 1 Anaerobic MIC Assay; assay type: cell-based, Staphylococcus epidermidis (clinical isolate); conditions: raw material, BHI with 1% Tween 80, 37° C. overnight
From the text: (§2) 1. Tier 1 Anaerobic MIC Assay
(§3) The data in Table 1 above was generated with the following test method. The purpose of this assay is to determine if a compound or formulation has an antimicrobial effect in vitro.
(§4) It is understood that when not specifically noted in this procedure: • a) All materials, reagents and equipment required for this procedure are of appropriate design and condition of cleanliness and/or sterility as determined by their intended use. • b) The operator has been trained in aseptic technique and has been qualified to perform the procedure and accurately interpret the results. • c) All media required for this procedure was manufactured by a reputable commercial source eg. Difco, Merck etc. and has been stored and prepared as per manufacturer's instructions. • d) All routine laboratory controls, including but not limited to, media function and growth promotion tests, verification of sterility and use of positive and negative controls are being conducted. Procedure: (all Procedures Performed in Anaerobic Chamber Except where Noted) 1. Apparatus • Incubator at 37° C.; 20-200 ul 12 channel pipette; 5-50 ul 12 channel pipette; 1250 ul 8 channel Thermo Scientific Matrix pipette; 96 well plate shaker (located in incubator); Beckman Coulter deep well cap mat #267005; Beckman Coulter deep 96 well plates #267007; Falcon 96 well tissue culture plates #353072; Vortexer; Culture tubes/caps Disposable sterile gloves; Sterile petri dishes; Standard microbiological lab equipment (sterile pipettes, syringes, tips, loops, etc.); Glass bottles/flasks for media; Autoclave; Parafilm; Spectrophotometer. 2. Media • 0.9% or 0.85% saline solution • BHI agar supplemented with 1% Tween 80 • BHI media supplemented with 1% Tween 80 3. Microbial Strains • Staphylococcus epidermidis (clinical isolate) • Corynebacterium mucofaciens (clinical isolate) 4. Test Procedure Inoculum Preparation • Prior to testing streak organisms for isolation on BHI with 1% Tween 80 plates, wrap with parafilm and place in 37° C. incubator. When isolated colonies appear remove one representative colony from each plate and place each in 5 ml of BHI with 1% Tween 80 media. Incubate at 37° C. with shaking overnight. Inoculate 20 ml BHI with 1% Tween 80 (per 96 deep well plate to be tested) with 20 ul of the overnight culture (1-1000 dilution). Master Plate Preparation • Compounds/formulations to be tested are diluted across a 96 deep well plate as shown below (for a 1% stock solution). 800 ul of 0.85% saline is added to wells A1 and B1 (as these will be the negative and positive control respectively). 800 ul each 1% stock solution+positive control are added to wells C1 through H1. 400 ul 0.85% saline are added to all other wells. 400 ul is then removed from #1 well added to the #2 well and mixed. This is then continued across the plate resulting in a 50% dilution between wells across the plate (this can be easily accomplished with an automatic 8 channel Matrix pipette set to withdraw, dispense and mix).
as §1

[3] = system: C. mucofaciens; experiment: Tier 1 Anaerobic MIC Assay; assay type: cell-based, Corynebacterium mucofaciens (clinical isolate); conditions: raw material, BHI with 1% Tween 80, 37° C. overnight
From the text: as §2, §3, §4, §1

[4] = iron binding affinity; NIST Standard Reference Database 46; cited from earlier work
[5] = intrinsic water solubility independent of pH

Row | SMILES | performance against the bacteria as raw materials [1] | microbial inhibition concentration (MIC), S. epidermidis [2] [ppm] | microbial inhibition concentration (MIC), C. mucofaciens [3] [ppm] | Log K1 [4] | also measured
1 | CC(C)=CCCC(C)=CC=O [Citral] | performing well |  |  |  | 
2 | [Ca+2].[Cl-].[Cl-] [CaCl] |  | >50000 | >50000 |  | 
3 | O=C(O)CN(CCN(CC(=O)O)CC(=O)O)CCN(CC(=O)O)CC(=O)O [Diethylenetriaminepentaacetic acid] |  |  |  | 28 | 
4 | C=CCc1ccc(O)c(OC)c1 [Eugenol] | performing well |  |  |  | 
5 | [Cl-].[Na+] [NaCl] |  | >25000 | >25000 |  | 
6 | O=C(O)CC(O)(CC(=O)O)C(=O)O [Citric Acid] |  |  |  | 11 | 
7 | CC(C(=O)O)N(CC(=O)O)CC(=O)O (stereo not shown) [Methylglycine diacetic acid (MGDA), Methylglycine diacetic acid] |  |  |  | 16 | 
8 | CCCCCCCCC(CO)CCCCCC (stereo not shown) [Hexyl Decanol] |  | 3031 | 6062 |  | 
9 | C=CCCCCCCCCC(=O)N[C@@H](Cc1ccccc1)C(=O)O [Sepiwhite] | performing well | 1000 | 2000 |  | 
10 | O=C([O-])[O-].[Ca+2] [Ca Carbonate, calcium carbonate] | performing moderately well | >2500 | >2500 |  | 
11 | O=P(O)(O)CN(CCN(CP(=O)(O)O)CP(=O)(O)O)CCN(CP(=O)(O)O)CP(=O)(O)O [Diethylenetriaminepentakis(methylenephosphonic acid)] |  |  |  | 23 | 
12 | CCOC(=O)CC(O)(CC(=O)OCC)C(=O)OCC [Triethyl citrate] | performing well |  |  |  | 
13 | CCCCC(CC)COCC(O)CO (stereo not shown) [Ethylhexyl glycerin] |  | 12500 | 12500 |  | 
14 | CC(=O)N(O)CCCCCNC(=O)CCC(=O)N(O)CCCCCNC(=O)CCC(=O)N(O)CCCCCN [Desferrioxamine] |  |  |  | 31 | 
15 | COC(=O)CCC(=O)OC [Dimethyl Succinate] | performing well |  |  |  | 
16 | Cc1cc(CC(C)CC(C)(C)C)n(O)c(=O)c1.NCCO (stereo not shown) [Piroctone olamine, 1-Hydroxy-4-methyl-6-(2,4,4-trimethylpentyl)-2-pyridone monoethanolamine salt] | perform particularly well |  |  |  | LogWSo [5]: −3.22
